The results in this text go back to ChEMBL document CHEMBL3045165, “3D-QSAR study of multi-target-directed AchE inhibitors based on autodocking” (Med Chem Res, 2012).

As a reminder, the IC50 is the concentration that gives 50% inhibition. A low value points to higher potency.

The experiment deals with Acetylcholinesterase (Homo sapiens, UniProt P22303). Kind of experiment: Inhibition of AChE (unknown origin) using acetylthiocholine chloride as substrate after 15 min by Ellman's method. (In general: In Ellman's method for cholinesterases, released thiocholine reacts with DTNB.)
Sequence of Acetylcholinesterase (P22303 whole entry): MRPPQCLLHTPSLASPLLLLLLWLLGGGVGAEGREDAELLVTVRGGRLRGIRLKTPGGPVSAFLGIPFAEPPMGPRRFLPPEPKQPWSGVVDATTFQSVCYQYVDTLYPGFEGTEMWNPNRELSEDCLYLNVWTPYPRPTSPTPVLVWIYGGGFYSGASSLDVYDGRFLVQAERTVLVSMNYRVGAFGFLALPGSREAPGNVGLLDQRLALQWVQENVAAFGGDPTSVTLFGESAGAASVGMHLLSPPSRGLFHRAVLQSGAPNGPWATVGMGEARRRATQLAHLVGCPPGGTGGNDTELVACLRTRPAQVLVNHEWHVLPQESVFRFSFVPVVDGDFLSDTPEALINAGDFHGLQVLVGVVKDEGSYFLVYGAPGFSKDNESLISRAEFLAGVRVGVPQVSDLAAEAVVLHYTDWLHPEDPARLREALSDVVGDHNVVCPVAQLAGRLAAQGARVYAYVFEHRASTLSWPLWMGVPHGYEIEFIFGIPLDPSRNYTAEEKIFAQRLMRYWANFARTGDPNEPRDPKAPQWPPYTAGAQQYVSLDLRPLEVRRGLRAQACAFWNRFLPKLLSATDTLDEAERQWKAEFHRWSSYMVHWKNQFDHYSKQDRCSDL
`CCOC(=O)C1=C(C)Oc2nc3c(c(N)c2[C@H]1c1cccc([N+](=O)[O-])c1)CCCC3` gave an IC50 of 1.91 µM.
The figure for `CCOC(=O)C1=C(C)Oc2nc3c(c(N)c2[C@H]1c1ccccc1)CCC3` is 3.89 µM; for `CCOC(=O)C1=C(C)Oc2nc3c(c(N)c2[C@H]1c1cccnc1OC)CCCC3` it is 3.89 µM.
The figure for `CCOC(=O)C1=C(C)Oc2nc3c(c(N)c2[C@H]1c1cccnc1Br)CCCC3` is 1.86 µM; for `CCOC(=O)C1=C(C)Oc2nc3c(c(N)c2[C@H]1c1cccnc1Cl)CCCC3` it is 2.14 µM; for `CC1(C)CC(=O)C2=C(C1)Oc1nc3c(c(N)c1[C@H]2c1ccccc1)CCCC3` it is 49 µM.
Under `CC1(C)CC(=O)C2=C(C1)Oc1nc3c(c(N)c1[C@H]2c1ccc(F)cc1)CCCC3` stands 69.2 µM; under `CC1(C)CC(=O)C2=C(C1)Oc1nc3c(c(N)c1[C@H]2c1ccccc1C(F)(F)F)CCCC3`, 17.8 µM.
`CC1(C)CC(=O)C2=C(C1)Oc1nc3c(c(N)c1[C@H]2c1cccc([N+](=O)[O-])c1)CCCC3` had a concentration for half-maximal inhibition (IC50) of 12 µM.
For `CC1(C)CC(=O)C2=C(C1)Oc1nc3c(c(N)c1[C@H]2c1ccc([N+](=O)[O-])cc1)CCCC3`, half-maximal inhibition (IC50) required 93.3 µM.
Under `Cc1ccc([C@H]2C3=C(CC(C)(C)CC3=O)Oc3nc4c(c(N)c32)CCCC4)cc1` stands 51.3 µM; under `COc1ccccc1[C@H]1C2=C(CC(C)(C)CC2=O)Oc2nc3c(c(N)c21)CCCC3`, 7.08 µM.
Under `COc1cccc([C@H]2C3=C(CC(C)(C)CC3=O)Oc3nc4c(c(N)c32)CCCC4)c1` stands 21.4 µM.
The figure for `COc1ccc([C@H]2C3=C(CC(C)(C)CC3=O)Oc3nc4c(c(N)c32)CCCC4)cc1` is 40.7 µM; for `CCOC(=O)C1=C(C)Nc2nc3c(c(N)c2[C@H]1c1ccccc1)CCCC3` it is 0.0794 µM; for `CCOC(=O)C1=C(C)Nc2nc3c(c(N)c2[C@H]1c1ccc([N+](=O)[O-])cc1)CCCC3` it is 0.603 µM.
Regarding `CCOC(=O)C1=C(C)Nc2nc3c(c(N)c2[C@H]1c1ccc(C)cc1)CCCC3`, the IC50 is 0.0912 µM.
The figure for `CC1(C)CC(=O)C2=C(C1)Nc1nc3c(c(N)c1[C@H]2c1ccccc1)CCCC3` is 0.324 µM.
Molecule `CC1(C)CC(=O)C2=C(C1)Nc1nc3c(c(N)c1[C@H]2c1ccc(F)cc1)CCCC3` showed an IC50 of 0.537 µM.
Under `Cc1ccc([C@H]2C3=C(CC(C)(C)CC3=O)Nc3nc4c(c(N)c32)CCCC4)cc1` stands 0.229 µM; under `COc1ccc([C@H]2C3=C(CC(C)(C)CC3=O)Nc3nc4c(c(N)c32)CCCC4)cc1`, 0.219 µM; under `CC1(C)CC(=O)C2=C(C1)Nc1nc3c(c(N)c1[C@H]2c1ccncc1)CCCC3`, 0.603 µM.
Consider `CCOC(=O)c1c(C)nc2nc3c(c(N)c2c1-c1ccc(C)cc1)CCCCC3`, for which 12.9 µM corresponded to half-maximal inhibition (IC50).
Molecule `CCOC(=O)c1c(C)nc2nc3c(c(N)c2c1-c1ccccc1OC)CCCCC3` showed a 50% inhibitory concentration (IC50) of 21.9 µM.
Under `CCOC(=O)c1c(C)nc2nc3c(c(N)c2c1-c1ccc(Cl)cc1)CCCCC3` stands 19.1 µM; under `CCOC(=O)c1c(C)nc2nc3c(c(N)c2c1-c1cccc([N+](=O)[O-])c1)CCCCC3`, 14.1 µM.
The figure for `CCOC(=O)c1c(C)nc2nc3c(c(N)c2c1-c1ccccc1)CCCCCC3` is 17 µM.
Under `CCOC(=O)c1c(C)nc2nc3c(c(N)c2c1-c1ccc(OC)cc1)CCCCCC3` stands 17 µM.
`CCOC(=O)C1=C(C)Oc2nc3c(c(N)c2[C@H]1c1ccncc1)CCC3` gave an IC50 of 6.61 µM.
The figure for `CCOC(=O)C1=C(C)Oc2nc3c(c(N)c2[C@H]1c1cccs1)CCC3` is 27.5 µM.
Consider `CCOC(=O)C1=C(C)Oc2nc3c(c(N)c2[C@H]1c1ccc(OC)cc1)CCCC3`, for which the IC50 is 0.871 µM.
Under `CCOC(=O)C1=C(C)Oc2nc3c(c(N)c2[C@H]1c1ccncc1)CCCC3` stands 3.02 µM; under `CCOC(=O)C1=C(C)Oc2nc3c(c(N)c2[C@H]1c1cccnc1)CCCC3`, 7.08 µM; under `CCOC(=O)C1=C(C)Oc2nc3c(c(N)c2[C@H]1c1cccs1)CCCC3`, 24.5 µM.
`CCOC(=O)C1=C(C)Oc2nc3c(c(N)c2[C@H]1c1ccco1)CCCC3`: half-maximal inhibition (IC50) was put at 1.7 µM.
The figure for `CCOC(=O)C1=C(C)Oc2nc3c(c(N)c2[C@H]1c1ccncc1)CCCCC3` is 8.51 µM; for `CCOC(=O)C1=C(C)Oc2nc3c(c(N)c2[C@H]1c1cccnc1)CCCCC3` it is 32.4 µM; for `CCOC(=O)C1=C(C)Oc2nc3c(c(N)c2[C@H]1c1cccs1)CCCCC3` it is 14.5 µM.
Under `CCOC(=O)C1=C(C)Oc2nc3c(c(N)c2[C@H]1c1cccc(OC)c1)CCC3` stands 24 µM; under `CCOC(=O)C1=C(C)Oc2nc3c(c(N)c2[C@H]1c1ccc(OC)c(OC)c1)CCC3`, 26.9 µM.
Under `CCOC(=O)C1=C(C)Oc2nc3c(c(N)c2[C@H]1c1cccc(OC)c1)CCCC3` stands 7.76 µM; under `CCOC(=O)C1=C(C)Oc2nc3c(c(N)c2[C@H]1c1ccc(OC)c(OC)c1)CCCC3`, 4.57 µM.
On to `CCOC(=O)C1=C(C)Oc2nc3c(c(N)c2[C@H]1c1cccc(OC)c1)CCCCC3`, for which the IC50 was 12.9 µM.
`CCOC(=O)C1=C(C)Oc2nc3c(c(N)c2[C@H]1c1ccccc1OC)CCCCC3` had an IC50 of 20.9 µM.
In the case of `CCOC(=O)C1=C(C)Oc2nc3c(c(N)c2[C@H]1c1ccc(OC)c(OC)c1)CCCCC3`, the IC50 was 33.1 µM.
Regarding `CCOC(=O)C1=C(C)Oc2nc3c(c(N)c2[C@H]1c1ccccc1)CCCC3`, half-maximal inhibition (IC50) required 1.55 µM.
Under `CCOC(=O)C1=C(C)Oc2nc3c(c(N)c2[C@H]1c1ccc(C)cc1)CCCC3` stands 1.82 µM; under `CCOC(=O)C1=C(C)Oc2nc3c(c(N)c2[C@H]1c1ccc(Cl)cc1)CCCC3`, 1.95 µM; under `CCOC(=O)C1=C(C)Oc2nc3c(c(N)c2[C@H]1c1ccc(C#N)cc1)CCCC3`, 3.47 µM.
With `CCOC(=O)c1c(C)nc2nc3c(c(N)c2c1-c1ccc(OC)cc1)CCCCC3`, half-maximal inhibition (IC50) required 1.35 µM.
The molecule `CCOC(=O)c1c(C)nc2nc3c(c(N)c2c1-c1ccc(OC)c(OC)c1)CCCC3` gave a half-inhibitory concentration (IC50) of 1.29 µM.
As for `CCOC(=O)c1c(C)nc2nc3c(c(N)c2c1-c1ccc(F)cc1)CCCC3`, inhibition was half-maximal at 0.708 µM (IC50).
The figure for `CCOC(=O)c1c(C)nc2nc3c(c(N)c2c1-c1ccc(F)cc1)CCCCC3` is 5.37 µM.
Regarding `CCOC(=O)c1c(C)nc2nc3c(c(N)c2c1-c1ccc(Cl)cc1)CCCC3`, inhibition was half-maximal at 1.29 µM (IC50).
The figure for `CCOC(=O)c1c(C)nc2nc3c(c(N)c2c1-c1ccc(OC)c(OC)c1)CCCCC3` is 6.46 µM.
With `Cc1nc2nc3c(c(N)c2c(-c2ccccc2)c1C(=O)OC(C)C)CCCC3`, the IC50 is 1.2 µM.
`CCOC(=O)c1c(C)nc2nc3c(c(N)c2c1-c1ccccc1)CCCC3` showed an IC50 of 0.813 µM.
The molecule `CCOC(=O)c1c(C)nc2nc3c(c(N)c2c1-c1ccccc1)CCCCC3` showed a half-maximal inhibitory concentration (IC50) of 20.9 µM.
`CCOC(=O)c1c(C)nc2nc3c(c(N)c2c1-c1ccc(OC)cc1)CCCC3` showed an IC50 of 8.91 µM.
In turn, `CCOC(=O)c1c(C)nc2nc3c(c(N)c2c1-c1ccncc1)CCC3` showed an IC50 of 8.13 µM.
The figure for `CCOC(=O)c1c(C)nc2nc3c(c(N)c2c1-c1ccncc1)CCCC3` is 1.41 µM; for `CCOC(=O)c1c(C)nc2nc3c(c(N)c2c1-c1ccccc1)CCC3` it is 12 µM; for `CCOC(=O)c1c(C)nc2nc3c(c(N)c2c1-c1ccc(OC)cc1)CCC3` it is 13.8 µM.
Under `CCOC(=O)c1c(C)nc2nc3c(c(N)c2c1-c1cccc(OC)c1)CCCC3` stands 1.2 µM.
Take `CCOC(=O)c1c(C)nc2nc3c(c(N)c2c1-c1cccc([N+](=O)[O-])c1)CCCC3`: the half-inhibitory concentration (IC50) is 0.933 µM.
The figure for `CCOC(=O)c1c(C)nc2nc3c(c(N)c2c1-c1ccncc1)CCCCC3` is 5.13 µM.
